In brackets after ≈: the same amount, converted by molar mass. Several values for one entry are separate records, joined by “and”; a condition that tells them apart may be missing. Equal values may be shown once. Read-outs that look alike come from different tables or passages of the source.
Tests used:
H. pylori ATCC 700392 = experiment: anti-Helicobacter pylori activity, microwell dilution method with MTT; format: cell-based; conditions: for MIC: read-out: MIC (H. pylori); for MIC (H. pylori): ND = not detected
Protocol: The anti-Helicobacter pylori activity of the PF and NPF as well as the isolated compounds was evaluated against H. pylori ATCC 700392 (type strain, obtained from the American Type Culture Collection unit (ATCC), using microwell dilution method and clarithromycin as standard drug[37]. The detailed procedures were described in the supplementary file.
The anti-Helicobacter pylori activity of the PF and NPF as well as the isolated compounds was evaluated against H. pylori ATCC 700392 (a type strain, obtained from the American Type Culture Collection unit (ATCC), using microwell dilution method and clarithromycin as standard drug ^1. The tested samples were prepared in dimethyl sulfoxide and successive ten twofold dilutions (125- 0.24 µg/mL) were carried out in a 96-well plate. Each microplate well included forty μL of Brain Heart Infusion growth medium and 10% fetal bovine serum (FBS), ten μL of inoculum and fifty μL of the tested sample. The plates were incubated for 3 days, in 5% oxygen, 10% carbon dioxide, 85 % nitrogen atmosphere at 37°C. Forty μL of 3- (4, 5-dimethyl-thiazol-2-yl)- 2,5-diphenyl-tetrazolium bromide (MTT) at a final concentration of 0.5 mg/mL freshly prepared in H2O was added to each well and incubated for 30 min. The bacteria were biologically active when change to purple color was observed ^1. While no change in MTT color indicated inhibition. Solvent control (DMSO) and the standard antibiotic (clarithromycin) were used as negative and positive controls, respectively. The H. pylori inhibition % was calculated using the given formula:
% Inhibition = Abs control – Abs sample × 100 /Abs control.

ovine COX-1 = target: T1, ovine COX-1 (Ovis aries, UniProt P05979); experiment: COX-1 inhibitory activity, colourimetric COX inhibitor screening assay kit; format: biochemical
T1 construct: purchased
Protocol: (§1) The inhibitory COX activity was assayed colourimetrically by examining the inhibition of the ovine COX-1 and human recombinant COX-2 enzymes as described by George et al.[38], using a COX inhibitor screening assay kit. The detailed procedures were described in the supplementary file.
(§2) The inhibitory COX activity was assayed colourimetrically by examining the inhibition of the ovine COX-1 and human recombinant COX-2 enzymes as described by George et al. ^2, using a COX inhibitory screening assay kit. This assay determines the COX peroxidase activity by monitoring the appearance of N,N,N',N'-tetramethyl-p-phenylenediamine (TMPD). Assay buffer (150 μL 0.1 M Tris–HCl pH 8.0), 10 μL heme and 10μL enzyme (COX-1 or COX-2) were added in each well. Ten μL of each tested sample concentration was added to each well and incubated for 15 minutes at 37°C. After incubation, 20 μL of TMPD was added to each well. For initiating the reaction, 10 μL 10 mM arachidonic acid was added and the plates were further incubated for another 2 minutes at 37°C. For terminating the reaction, 50 μL 1 N HCl and saturated stannous chloride were added.
(§3) Reaction mixture containing assay buffer and heme acted as the blank and a mixture with either COX-1 or COX-2 assay buffer and heme acted as the 100% initial activity (IA). […] The absorbances of oxidized TMPD (blue colour) were read in ELISA plate reader at 590 nm. The % inhibition was calculated using the following formula:
(§4) COX % Inhibition= [(100%IA−Inhibitor)/ 100% IA x 100]. Where, IA: 100% initial activity.
(§5) The concentration at which the tested sample produces 50% inhibition of COX-1 and/or COX-2 (IC50) was determined. The selectivity index (SI) was calculated also as IC50 (COX-1)/ (COX-2).

human recombinant COX-2 = target: T2, human recombinant COX-2 (Homo sapiens, UniProt P35354); experiment: COX-2 inhibitory activity, colourimetric COX inhibitor screening assay kit; format: biochemical; conditions: for IC50: human recombinant COX-2; for SI (COX-1/COX-2): selectivity index calculated as IC50 (COX-1)/(COX-2)
T2 construct: purchased
T2 sequence (P35354 18-604): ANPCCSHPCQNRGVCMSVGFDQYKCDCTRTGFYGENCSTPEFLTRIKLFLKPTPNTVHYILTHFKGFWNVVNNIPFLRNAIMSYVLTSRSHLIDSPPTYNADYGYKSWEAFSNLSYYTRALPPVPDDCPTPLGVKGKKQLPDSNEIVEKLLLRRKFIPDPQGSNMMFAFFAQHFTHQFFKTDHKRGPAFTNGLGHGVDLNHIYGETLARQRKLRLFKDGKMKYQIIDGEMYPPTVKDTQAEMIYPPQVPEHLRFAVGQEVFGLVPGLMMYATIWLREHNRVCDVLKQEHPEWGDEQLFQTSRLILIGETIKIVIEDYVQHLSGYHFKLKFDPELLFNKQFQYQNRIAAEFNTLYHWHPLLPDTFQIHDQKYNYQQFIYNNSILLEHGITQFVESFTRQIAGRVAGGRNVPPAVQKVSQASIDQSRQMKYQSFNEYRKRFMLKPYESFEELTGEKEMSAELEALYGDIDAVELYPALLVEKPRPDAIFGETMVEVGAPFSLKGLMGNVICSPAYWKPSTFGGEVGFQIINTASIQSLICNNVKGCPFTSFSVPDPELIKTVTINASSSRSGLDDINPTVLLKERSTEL
Protocol: as §1, §2, §3, §4, §5

[1] = system: RAW 264.7 macrophage cell line (NO); experiment: nitric oxide (NO) inhibitory activity in lipopolysaccharide-stimulated macrophages; format: cell-based, murine; conditions: Mus musculus, RAW264.7, RAW 264.7 cells, 1 µg/mL lipopolysaccharide
Protocol: The detailed procedures were described in the supplementary file.
The cell was incubated at 37 °C in 5% carbon dioxide. RAW 264.7 cells were seeded onto a 96-well plate (1×10^5 cells/well) and incubated for 24 h. […] Followed by incubation, the cells stimulated with 1µg/mL of lipopolysaccharide for another 24 h. The supernatant was gently transferred to new 96-well plates and used for NO determination. L-N 6 - (1-iminoethyl) lysine hydrochloride), is used as standard drug. The absorbance (Abs) was measured in a microplate reader at 540 nm ^3. The percentage inhibition was calculated using the following formula:
Inhibition (%) = 1-[Control-Test] Control × 100.

[2] = concentration required for 100% inhibition, H. pylori ATCC 700392

T1 sequence (P05979 25-600): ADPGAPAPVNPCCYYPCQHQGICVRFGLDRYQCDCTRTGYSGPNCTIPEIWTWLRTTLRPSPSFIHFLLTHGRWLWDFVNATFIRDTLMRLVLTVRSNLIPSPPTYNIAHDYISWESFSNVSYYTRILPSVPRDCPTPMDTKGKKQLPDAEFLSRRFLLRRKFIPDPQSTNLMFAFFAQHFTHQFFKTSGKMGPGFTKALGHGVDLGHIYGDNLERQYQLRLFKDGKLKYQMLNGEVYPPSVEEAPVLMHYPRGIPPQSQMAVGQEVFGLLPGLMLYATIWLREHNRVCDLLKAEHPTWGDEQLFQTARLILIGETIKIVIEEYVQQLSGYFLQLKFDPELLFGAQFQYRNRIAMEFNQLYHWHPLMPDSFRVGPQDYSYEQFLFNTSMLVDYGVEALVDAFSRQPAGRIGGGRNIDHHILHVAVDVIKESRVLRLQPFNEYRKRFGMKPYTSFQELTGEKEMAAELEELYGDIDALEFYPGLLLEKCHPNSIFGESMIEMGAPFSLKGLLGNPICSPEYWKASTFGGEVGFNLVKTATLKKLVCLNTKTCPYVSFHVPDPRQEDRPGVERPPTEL

COc1c(O)cc2occ(-c3ccc(O)cc3)c(=O)c2c1O [Tectorigenin (P4), 4′,5,7-trihydroxy-6-methoxyisoflavone]
MIC (H. pylori ATCC 700392; Helicobacter pylori, ATCC700392): 15.6 µg/mL and 52 µM | MIC (H. pylori) (H. pylori ATCC 700392; [2]): 15.63 µg/mL (≈ 52.1 µM) | MIC (H. pylori ATCC 700392; [2]): 52.05 µM (≈ 15.6 µg/mL) | IC50 (ovine COX-1): 407 µM | IC50 (human recombinant COX-2; ND = not detected): 189 µM | SI (COX-1/COX-2) (human recombinant COX-2): 2.16 | IC50 [1]: > 416 µM | IC50 ([1]; ND = not detected): > 125 µg/mL

CC(C)[C@H]1CC[C@H]2[C@@]1(C)CC[C@@]1(C)[C@@H]3CC[C@H]4C(C)(C)[C@@H](O)CC[C@]4(C)C3=CC[C@]21C [Isoarborinol (N1), isoarborinol]
MIC (H. pylori) (H. pylori ATCC 700392; [2]): no H. pylori inhibitory potential | IC50 (ovine COX-1; ovine COX-1, read-out: IC50 (COX-1)): 73.3 ± 1 µM | IC50 (human recombinant COX-2): 51.8 ± 2.1 µM | SI (COX-1/COX-2) (human recombinant COX-2): 1.42 | IC50 [1]: 44.3 ± 1.7 µM
